{"source": "ChEMBL document CHEMBL4433256", "about": "“Homoharringtonine stabilizes secondary structure of guanine-rich sequence existing in the 5'-untranslated region of Nrf2” (Bioorg Med Chem Lett, 2019)", "key": {"[1]": {"experiment": "Stabilization of ssGQPLEX-G/T-2,4 DNA (unknown origin) by circular dichroism method"}, "[2]": {"experiment": "Binding affinity to ssGQPLEX DNA (unknown origin) assessed as dissociation constant by isothermal titration calorimetric method"}, "[3]": {"system": "A549", "experiment": "Inhibition of Nuclear factor erythroid 2-related factor 2 5'-untranslated region guanine-rich DNA sequence in human A549 cells assessed as suppression of AKR1B10 gene expression at 10 nM measured up to 48 hrs by RT-PCR analysis", "assay_type": "cell-based"}, "[4]": {"system": "A549", "experiment": "Cytotoxicity against human A549 cells at 1 nM to 10 uM after 24 hrs by MTT assay", "assay_type": "cell-based", "conditions": "a549, 24 h, 0.001 µM"}, "[5]": {"system": "A549", "experiment": "Inhibition of Nrf2 5'-untranslated region guanine-rich DNA sequence in human A549 cells assessed as potentiation of etoposide-induced apoptosis by measuring increase cleaved PARP protein level in at 10 nM after 24 hrs by Western blot analysis", "assay_type": "cell-based"}, "[6]": {"system": "A549", "experiment": "Inhibition of Nrf2 5'-untranslated region guanine-rich DNA sequence in human A549 cells assessed as potentiation of etoposide-induced cytotoxicity by measuring increase in ROS production at 10 nM after 24 hrs by DCFH-DA based assay", "assay_type": "cell-based"}, "[7]": {"experiment": "Stabilization of ssGQPLEX-G/T-1,3 DNA (unknown origin) by circular dichroism method"}, "[8]": {"system": "A549", "experiment": "Inhibition of Nuclear factor erythroid 2-related factor 2 5'-untranslated region guanine-rich DNA sequence in human A549 cells assessed as suppression of GCLC gene expression at 10 nM measured up to 48 hrs by RT-PCR analysis", "assay_type": "cell-based"}, "[9]": {"system": "A549", "experiment": "Inhibition of Nuclear factor erythroid 2-related factor 2 5'-untranslated region guanine-rich DNA sequence in human A549 cells assessed as reduction in Nrf2 protein level at 10 nM incubated for 12 to […] hrs by Western blot analysis", "assay_type": "cell-based"}, "[10]": {"experiment": "Stabilization of ssGQPLEX-delta1,2 DNA lacking first and second G blocks (unknown origin) by circular dichroism method"}, "[11]": {"experiment": "Stabilization of dsGQPLEX DNA (unknown origin) by circular dichroism method"}, "[12]": {"system": "A549", "experiment": "Inhibition of Nrf2 5'-untranslated region guanine-rich DNA sequence in human A549 cells assessed as potentiation of etoposide-induced cytotoxicity by measuring decrease in cell viability at 10 nM after 24 hrs by MTT assay", "assay_type": "cell-based"}, "[13]": {"system": "A549", "experiment": "Inhibition of Nuclear factor erythroid 2-related factor 2 5'-untranslated region guanine-rich DNA sequence in human A549 cells assessed as suppression of AKR1C3 gene expression at 10 nM measured up to 48 hrs by RT-PCR analysis", "assay_type": "cell-based"}, "[14]": {"experiment": "Stabilization of ssGQPLEX DNA (unknown origin) assessed as increase in the peak of 264 nm wavelength by circular dichroism method"}, "[15]": {"experiment": "Stabilization of ssGQPLEX-G/T-1,2,3,4 DNA by circular dichroism method"}, "[16]": {"system": "A549", "experiment": "Inhibition of Nrf2 5'-untranslated region guanine-rich DNA sequence in human A549 cells assessed as potentiation of etoposide-induced cytotoxicity by measuring increase in apoptosis at 10 nM after 24 hrs by TUNEL assay", "assay_type": "cell-based"}, "[17]": {"system": "A549", "experiment": "Inhibition of Nuclear factor erythroid 2-related factor 2 5'-untranslated region guanine-rich DNA sequence in human A549 cells assessed as reduction in NRF2 mRNA levels at 10 nM after 12 to 36 hrs by RT-PCR analysis", "assay_type": "cell-based"}, "[18]": {"system": "A549", "experiment": "Inhibition of Nrf2 5'-untranslated region guanine-rich DNA sequence in human A549 cells assessed as potentiation of etoposide-induced apoptosis by measuring increase cleaved caspase-3 protein level in at 10 nM after 24 hrs by Western blot analysis", "assay_type": "cell-based"}, "[19]": {"experiment": "Stabilization of ssGQPLEX-delta3,4 DNA lacking third and fourth G blocks (unknown origin) by circular dichroism method"}}, "note": "Calls of active or inactive are those of the source. The calls are words filed in the database; no cut-off is given here.", "data": [{"smiles": "COC(=O)C[C@](O)(CCCC(C)(C)O)C(=O)O[C@@H]1C(OC)=C[C@]23CCCN2CCc2cc4c(cc2[C@H]13)OCO4", "note": "[OMACETAXINE MEPESUCCINATE]", "values": [{"measurement": "Activity", "setting": "[1]", "result": "inactive"}, {"measurement": "Kd", "setting": "[2]", "result": 17, "unit": "µM"}, {"measurement": "inhibition", "setting": "[3]", "result": "Active"}, {"measurement": "Activity", "setting": "[4]", "result": "Non-Toxic"}, {"measurement": "inhibition", "setting": "[5]", "result": "Active"}, {"measurement": "inhibition", "setting": "[6]", "result": "Active"}, {"measurement": "Activity", "setting": "[7]", "result": "inactive"}, {"measurement": "inhibition", "setting": "[8]", "result": "Active"}, {"measurement": "inhibition", "setting": "[9]", "result": "Active"}, {"measurement": "Activity", "setting": "[10]", "result": "inactive"}, {"measurement": "Activity", "setting": "[11]", "result": "inactive"}, {"measurement": "inhibition", "setting": "[12]", "result": "Active"}, {"measurement": "inhibition", "setting": "[13]", "result": "Active"}, {"measurement": "Activity", "setting": "[14]", "result": "Active"}, {"measurement": "Activity", "setting": "[15]", "result": "inactive"}, {"measurement": "inhibition", "setting": "[16]", "result": "Active"}, {"measurement": "inhibition", "setting": "[17]", "result": "Active"}, {"measurement": "inhibition", "setting": "[18]", "result": "Active"}, {"measurement": "Activity", "setting": "[19]", "result": "inactive"}]}]}
